Test results taken from US20240132464A1, “HETEROCYCLIC COMPOUNDS AS E3 LIGASE INHIBITORS” (Accutar Biotechnology Inc., priority 2022, published 2024).

Molecular target: T1, GID4 (Uniprot ID: Q81VV7, residues 124-289) (Homo sapiens, UniProt Q8IVV7)
T1 construct: GID4 (Uniprot ID: Q81VV7, residues 124-289)
T1 sequence (Q8IVV7 124-289): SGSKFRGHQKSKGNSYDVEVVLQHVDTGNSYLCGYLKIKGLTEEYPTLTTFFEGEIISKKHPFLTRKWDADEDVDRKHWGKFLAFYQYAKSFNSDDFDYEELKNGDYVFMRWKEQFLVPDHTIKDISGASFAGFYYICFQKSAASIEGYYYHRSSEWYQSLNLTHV
Test: GID4 competitive binding assay (AlphaScreen, GID4/degron peptide PGLW)
Conditions: 24 nM GID4, 48 nM biotinylated degron peptide PGLW, 4° C., read-out: IC50 (Inhibition of GID4/Degron binding by test compounds)
In short: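 His-tagged human GID4 (residues 124-289, 24 nM) pre-incubated 2 h at 4 °C with 48 nM biotinylated PGLW peptide and compound in HEPES pH 7.5 buffer, 2% DMSO (final). AlphaScreen streptavidin donor/Ni-NTA acceptor beads added for 1 h; IC50 from nonlinear fit of % inhibition versus DMSO.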

SMILES	IC50
Nc1cc(N2CCOC(c3cnc4ccccn34)C2)nc(N)n1 (racemic) [Compound 136, (R/S)-6-(2-(imidazo[1,2-a]pyridin-3-yl)morpholino)pyrimidine-2,4-diamine]	> 5000 nM
CC(C)c1cc(N2CCNC(c3ccccc3Cl)C2)nc(N)n1 (centres unmarked) [Compound 175, 4-(3-(2-chlorophenyl)piperazin-1-yl)-6-isopropylpyrimidin-2-amine]	500 to 5000 nM
Nc1cc(N2CCO[C@@](CO)(c3ccccc3Br)C2)nc(N)n1 (stereo in doubt) [Compound 37, (S/R)-(2-(2-bromophenyl)-4-(2,6-diaminopyrimidin-4-yl)morpholin-2-yl)methanol]	< 500 nM
CC(C)c1cc(N2CCNC(c3ccccc3)C2)nc(N)n1 (centres unmarked) [Compound 165, 4-isopropyl-6-(3-phenylpiperazin-1-yl)pyrimidin-2-amine]	> 5000 nM
CC(=O)N1CCN(c2cc(N)nc(N)n2)C[C@H]1c1ccccc1Br (stereo in doubt) [Compound 60, (R/S)-1-(2-(2-bromophenyl)-4-(2,6-diaminopyrimidin-4-yl)piperazin-1-yl)ethan-1-one]	> 5000 nM
CNc1cc(N2CCCC(c3cnc4ccccn34)C2)nc(NC)n1 (racemic) [Compound 123, (S/R)-6-(3-(imidazo[1,2-a]pyridin-3-yl)piperidin-1-yl)-N2,N4-dimethylpyrimidine-2,4-diamine]	500 to 5000 nM
Nc1nc(NC2CC2)cc(N2CCO[C@@H](c3ccccc3Br)C2)n1 (stereo in doubt) [Compound 98, (S/R)-6-(2-(2-bromophenyl)morpholino)-N4-cyclopropylpyrimidine-2,4-diamine]	< 500 nM
Nc1cc(N2CCCC(c3cnc4ccccn34)C2)nc(N)n1 (racemic) [Compound 116, (R/S)-6-(3-(imidazo[1,2-a]pyridin-3-yl)piperidin-1-yl)pyrimidine-2,4-diamine]	500 to 5000 nM
Nc1cc(N2CCN(CCO)[C@@H](c3ccccc3Br)C2)nc(NC2CC2)n1 (stereo in doubt) [Compound 69, (S/R)-2-(4-(6-amino-2-(cyclopropylamino)pyrimidin-4-yl)-2-(2-bromophenyl)piperazin-1-yl)ethan-1-ol]	> 5000 nM
COc1ccccc1C1CN(c2cc(C(C)C)nc(N)n2)CCN1 (centres unmarked) [Compound 171, 4-isopropyl-6-(3-(2-methoxyphenyl)piperazin-1-yl)pyrimidin-2-amine]	500 to 5000 nM
CNc1cc(N2CCCC(c3cnc4ccccn34)C2)nc(C(C)C)n1 (single isomer, unassigned) [Compound 126, (R/S)-6-(3-(imidazo[1,2-a]pyridin-3-yl)piperidin-1-yl)-2-isopropyl-N-methylpyrimidin-4-amine]	< 500 nM
Nc1nc(C2CC2)cc(N2CCCC(c3cnc4ccccn34)C2)n1 (centres unmarked) [Compound 139, 4-cyclopropyl-6-(3-(imidazo[1,2-a]pyridin-3-yl)piperidin-1-yl)pyrimidin-2-amine]	< 500 nM
CNc1cc(N2CCCC(c3ncc4ccccn34)C2)nc(N)n1 (centres unmarked) [Compound 94, 6-(3-(imidazo[1,5-a]pyridin-3-yl)piperidin-1-yl)-N4-methylpyrimidine-2,4-diamine]	> 5000 nM
Nc1nc(N2CCOC(c3ccccc3Br)C2)c2cc[nH]c2n1 (single isomer, unassigned) [Compound 39, (R/S)-4-(2-(2-bromophenyl)morpholino)-7H-pyrrolo[2,3-d]pyrimidin-2-amine]	> 5000 nM
CNc1cc(N2CCNC(c3csc4ccccc34)C2)nc(N)n1 (centres unmarked) [Compound 102, 6-(3-(benzo[b]thiophen-3-yl)piperazin-1-yl)-N4-methylpyrimidine-2,4-diamine]	500 to 5000 nM
CC(C)c1cc(N2CCNC(c3cc(N4CC(CO)C4)ccc3Br)C2)nc(N)n1 (single isomer, unassigned) [Compound 31, (S/R)-(1-(3-(4-(2-amino-6-isopropylpyrimidin-4-yl)piperazin-2-yl)-4-bromophenyl)azetidin-3-yl)methanol]	500 to 5000 nM
CC(C)Nc1nc(C(C)C)cc(N2CCNC(c3ccccc3Br)C2)n1 (single isomer, unassigned) [Compound 150, (S/R)-4-(3-(2-bromophenyl)piperazin-1-yl)-N,6-diisopropylpyrimidin-2-amine]	> 5000 nM

Now from value to compound:

IC50	SMILES
500 to 5000 nM	Nc1nccc2ccc(-c3cc(C(=O)N4CCCC4)cc4c3CCCC4)cc12 [Compound 342, (4-(1-aminoisoquinolin-7-yl)-5,6,7,8-tetrahydronaphthalen-2-yl)(pyrrolidin-1-yl)methanone]
< 500 nM	CC(C)c1cc(N2CCNC(c3cnc4ccccn34)C2)c2cc[nH]c2n1 (racemic) [Compound 371, (R/S)-3-(4-(6-isopropyl-1H-pyrrolo[2,3-b]pyridin-4-yl)piperazin-2-yl)imidazo[1,2-a]pyridine]
< 500 nM	CN(C)CCCNC(=O)c1nnc(-c2cc(O)c3ncccc3c2)[nH]1 [Compound 262, N-(3-(dimethylamino)propyl)-5-(8-hydroxyquinolin-6-yl)-4H-1,2,4-triazole-3-carboxamide]
< 500 nM	CN(C)CCCNC(=O)Cc1ccc(-c2cc(O)c3ncccc3c2)cc1 [Compound 288, N-(3-(dimethylamino)propyl)-2-(4-(8-hydroxyquinolin-6-yl)phenyl)acetamide]
500 to 5000 nM	Nc1cc(N2CCCC(c3cnc4ccncn34)C2)nc(N)n1 (centres unmarked) [Compound 258, 6-(3-(imidazo[1,2-c]pyrimidin-3-yl)piperidin-1-yl)pyrimidine-2,4-diamine]
> 5000 nM	Cc1nc(N)nc(N2CCCC(c3ccn[nH]3)C2)c1Br (centres unmarked) [Compound 216, 4-(3-(1H-pyrazol-5-yl)piperidin-1-yl)-5-bromo-6-methylpyrimidin-2-amine]
> 5000 nM	Cc1nc(N)nc(N2CCCC(c3ccn[nH]3)C2)c1C (centres unmarked) [Compound 214, 4-(3-(1H-pyrazol-5-yl)piperidin-1-yl)-5,6-dimethylpyrimidin-2-amine]
500 to 5000 nM	CC(C)c1cc(N2CCCC(O)(c3ccccc3Br)C2)nc(N)n1 (centres unmarked) [Compound 236, 1-(2-amino-6-isopropylpyrimidin-4-yl)-3-(2-bromophenyl)piperidin-3-ol]
< 500 nM	CN(C)CCNC(=O)c1ccc(-c2cc(O)c3ncccc3c2)cc1 [Compound 299, N-(2-(dimethylamino)ethyl)-4-(8-hydroxyquinolin-6-yl)benzamide]
500 to 5000 nM	O=C(c1cccc(-c2ccc3c(=O)[nH]ccc3c2)c1)N1CCCC1 [Compound 352, 6-(3-(pyrrolidine-1-carbonyl)phenyl)isoquinolin-1(2H)-one]
500 to 5000 nM	Nc1nccc2ccc(-c3cccc(C(=O)N4CCCC4)c3)cc12 [Compound 353, (3-(1-aminoisoquinolin-7-yl)phenyl)(pyrrolidin-1-yl)methanone]
500 to 5000 nM	Nc1cc(N2CCC=C(c3ncn4ccccc34)C2)nc(N)n1 [Compound 237, 6-(5-(imidazo[1,5-a]pyridin-1-yl)-3,6-dihydropyridin-1(2H)-yl)pyrimidine-2,4-diamine]
500 to 5000 nM	Nc1cc(N2CCCC(F)(c3ccccc3Br)C2)nc(N)n1 (centres unmarked) [Compound 228, 6-(3-(2-bromophenyl)-3-fluoropiperidin-1-yl)pyrimidine-2,4-diamine]
> 5000 nM	Nc1cc(N2CCCC(c3ccn[nH]3)C2)nc(N)n1 (centres unmarked) [Compound 193, 6-(3-(1H-pyrazol-5-yl)piperidin-1-yl)pyrimidine-2,4-diamine]
> 5000 nM	Cc1cc(N2CCCC(c3ccn[nH]3)C2)nc(N)n1 (centres unmarked) [Compound 209, 4-(3-(1H-pyrazol-5-yl)piperidin-1-yl)-6-methylpyrimidin-2-amine]
> 5000 nM	CNc1cc(N2CCCC(c3nnc4ccccn34)C2)nc(N)n1 (centres unmarked) [Compound 180, 6-(3-([1,2,4]triazolo[4,3-a]pyridin-3-yl)piperidin-1-yl)-N4-methylpyrimidine-2,4-diamine]
< 500 nM	CN(C)CCCNC(=O)c1cnc(-c2cc(O)c3ncccc3c2)s1 [Compound 274, N-(3-(dimethylamino)propyl)-2-(8-hydroxyquinolin-6-yl)thiazole-5-carboxamide]
< 500 nM	CN(C)CCCNC(=O)c1ccc(-c2cc(O)c3nccnc3c2)cc1 [Compound 285, N-(3-(dimethylamino)propyl)-4-(8-hydroxyquinoxalin-6-yl)benzamide]
< 500 nM	COc1cc(CNC(=O)c2n[nH]c3ccc(-c4ccc5ccnc(N)c5c4)cc23)ccn1 [Compound 326, 5-(1-aminoisoquinolin-7-yl)-N-((2-methoxypyridin-4-yl)methyl)-1H-indazole-3-carboxamide]
500 to 5000 nM	CN(C)CCCNC(=O)c1ccc(-c2cc(O)c3ncccc3c2)c(Cl)c1 [Compound 317, 3-chloro-N-(3-(dimethylamino)propyl)-4-(8-hydroxyquinolin-6-yl)benzamide]
< 500 nM	CN1CCC(NC(=O)c2ccc(-c3cc(O)c4ncccc4c3)cc2)CC1 [Compound 297, 4-(8-hydroxyquinolin-6-yl)-N-(1-methylpiperidin-4-yl)benzamide]
500 to 5000 nM	COC1CCN(C(=O)c2cccc(-c3ccc4ccnc(N)c4c3)c2)CC1 [Compound 346, (3-(1-aminoisoquinolin-7-yl)phenyl)(4-methoxypiperidin-1-yl)methanone]
< 500 nM	CN(C)CCCNC(=O)c1cc(F)c(-c2cc(O)c3ncccc3c2)cc1Cl [Compound 315, 2-chloro-N-(3-(dimethylamino)propyl)-5-fluoro-4-(8-hydroxyquinolin-6-yl)benzamide]
> 5000 nM	CC(C)c1cc(N2CCC=C(c3ccccc3Br)C2)nc(N)n1 [Compound 230, 4-(5-(2-bromophenyl)-3,6-dihydropyridin-1(2H)-yl)-6-isopropylpyrimidin-2-amine]
